Laboratory results from article PMC5118987 (Antimicrobial Agents and Chemotherapy, 2016).
Like-named read-outs stand apart in the source and are kept apart here.

How the values were obtained:
[1] = system: HIV-1 integration in MT-2 cells (HIV-1 IIIb); settings: HIV-1 IIIb-infected MT-2, relative to mock-treated control
Procedure: Quantification of 2-long terminal repeat (LTR) circles, late reverse transcription products, and integration junctions was adapted from a previously described method ([30]). […] Three hours after viral adsorption, the infected cells were washed twice with 20 ml of RPMI 1640 medium containing 10% FBS and antibiotics and seeded in 6-well plates in 2 ml of culture medium at 1 × 10^6 cells per well. […] These plates were incubated at 37°C for either 12 h (for late reverse transcription product quantification) or 24 h (for 2-LTR circle and Alu-LTR product quantification), after which time the cells were harvested for total DNA isolation. DNA was extracted from each well using the QIAamp DNA minikit (Qiagen, Valencia, CA) and collected as a 100-μl eluate. TaqMan real-time PCR-quantified 2-LTR junctions (2-LTR circles), late reverse transcription products, and integration junctions (Alu-LTR) were normalized to the level of host globin gene in each sample. Quantification by PCR was performed on the ViiA 7 real-time PCR system (Life Technologies, Grand Island, NY).

HIV-1 IIIb = settings: for PAEC95 (protein binding-adjusted EC95): EC95 in MT-4 with human serum shift; for EC95: MT-4 cells, calculated using Hill slope
Procedure: Each compound series was prepared several times independently in quadruplicate to capture the variations in Hill slope associated with preparation of compound serial dilutions. The assay was performed in a 384-well format. MT-4 cells were infected in bulk at the same MOI as that described above, and the plates were developed with CellTiter-Glo reagent 5 days postinfection.

[2] = Cytotoxicity assay in MT-2 cells; format: cell-based; settings: human, uninfected MT-2 cells
Procedure: For the antiviral assay utilizing MT-2 and MT-4 cells, 50 μl of a 2× test concentration of 5-fold serially diluted compound in culture medium with 10% FBS was added to each well of a 96-well plate (9 concentrations) in triplicate. MT-2 and MT-4 cells were infected with HIV-1 IIIb at a multiplicity of infection (MOI) of 0.01 for 3 h. Fifty microliters of infected cell suspension in culture medium with 10% FBS (∼1.5 × 10^4 cells) then was added to each well containing 50 μl of diluted compound. The plates were then incubated at 37°C for 5 days. After 5 days of incubation, 100 μl of CellTiter-Glo reagent (Promega Biosciences, Inc., Madison, WI) was added to each well containing MT-2 or MT-4 cells. Cell lysis was carried out by incubation at room temperature for 10 min and chemiluminescence was read. For compound cytotoxicity assessment, the protocol was identical except that uninfected cells were used and compounds were serially diluted 3-fold.

HIV-1 clinical isolates = experiment: Antiviral assay against HIV-1 clinical isolates in fresh human PBMCs (RT endpoint)
[3] = system: HRV (mixture of HRV1A, HRV14, HRV16); experiment: microbe, parasite or virus in culture; format: cell-based; settings: Human rhinovirus sp., H1-HeLa
in vitro = settings: human, 6 days
Excerpt: Freshly isolated human peripheral blood mononuclear cells (PBMCs) were obtained from healthy volunteers (supplied by AllCells, Inc., Alameda, CA). Blood donors were negative for HIV-1, hepatitis B, and hepatitis C viral infections. CD4^+ T lymphocytes were isolated by negative selection using a magnetically labeled antibody cocktail ([sequence] Technologies Inc., Vancouver, Canada) and cultured in RPMI cell culture media (Life Technologies, Grand Island, NY) supplemented with 10% FBS. CD4^+ T cells were activated for 48 h at 37°C by addition of 1 μg/ml phytohemagglutinin (PHA; Sigma, St. Louis, MO) and 5 ng/ml interleukin-2 (IL-2; Roche Diagnostics, Indianapolis, IN). […] Human PBMCs were used for cytotoxicity assays after culturing for 48 h in either complete RPMI medium alone (resting conditions) or RPMI containing 1 μg/ml PHA and 5 ng/ml IL-2 (activated conditions).

[4] = target: T1, HIV-1 IN 3′-processing activity (Human immunodeficiency virus type 1 group M subtype B, UniProt P04585); experiment: IN 3′-processing assay (HTRF); format: biochemical; settings: purified recombinant HIV-1 IN; mean ± SD, 5 experiments
T1 construct: Recombinant IN containing an N-terminal 6His tag was expressed in BL21(DE3) pLysS bacteria; 6His (N); made in house; host or cells: E. coli BL21(DE3) pLysS
Procedure: The strand transfer activity of IN was measured using an assay based on homogeneous time-resolved fluorescence resonance energy transfer (HTRF) ([34]) and has been previously described in detail ([35]). An HTRF-based 3′-processing assay was performed essentially as described for the IN strand transfer assay using a specially designed nonprocessed donor DNA in the absence of target DNA ([35]).

HIV-1 clonal variants = experiment: PhenoSense integrase assay, clonal variants from EVG/COBI/FTC/TDF virologic failures; format: cell-based; settings: Human immunodeficiency virus 1, NL43, read-out: mean EC50 of wild-type virus
Excerpt: Clonal Analysis of HIV-1 from Patients. Plasma from 16 patients treated in Studies GS-US-236-0102 and GS-US-236-0103 with confirmed virologic failure and resistance development in the HIV-1 integrase gene were sent to Monogram Biosciences (South San Francisco, CA) for clonal analysis. The HIV-1 RNA was isolated and the cDNA was synthesized using Monogram proprietary primers. Using proprietary primers, PCR amplification of the entire protease, reverse transcriptase, and integrase coding regions of the pol gene were performed. PCR products were inserted into T/A cloning vectors.
Approximately 20 clones were chosen per patient sample for sequencing using proprietary primers. A subset of clones was chosen for phenotypic analysis based on the presence of INSTI resistance mutations. Resistance test vectors containing the patient-derived integrase coding region from selected clones were constructed using standard Monogram Biosciences protocols. […]
values) in these clones were obtained through a contract study by Monogram Biosciences using the PhenoSense integrase assay. The fold-change from the NL4-3 wild-type reference vector values was determined.

[5] = system: organic cation transporter 2 (OCT2); settings: read-out: IC50 inhibition of organic cation transporter 2 (OCT2); cited from earlier work
[6] = Human immunodeficiency virus 1, BAL, PBMC, HIV-1 subtype B isolate BaL, human PBMCs
[7] = Human immunodeficiency virus 1, PBMC, HIV-1 subtype A isolate 92RW016, human PBMCs
[8] = Human immunodeficiency virus 1, PBMC, HIV-1 subtype A isolate 92UG037, human PBMCs
[9] = Human immunodeficiency virus 1, PBMC, HIV-1 subtype B isolate 89BZ_167, human PBMCs
[10] = Human immunodeficiency virus 1, PBMC, HIV-1 subtype B isolate 91US001, human PBMCs
[11] = Human immunodeficiency virus 1, PBMC, HIV-1 subtype B isolate 91US004, human PBMCs
[12] = Human immunodeficiency virus 1, PBMC, HIV-1 subtype C isolate 93IN905, human PBMCs
[13] = Human immunodeficiency virus 1, PBMC, HIV-1 subtype C isolate 98US_MSC5016, human PBMCs
[14] = Human immunodeficiency virus 1, PBMC, HIV-1 subtype D isolate 98UG_57128, human PBMCs
[15] = Human immunodeficiency virus 1, PBMC, HIV-1 subtype E isolate 96TH_M02138, human PBMCs
[16] = Human immunodeficiency virus 1, PBMC, HIV-1 subtype E isolate 96TH_NI1046, human PBMCs
[17] = Human immunodeficiency virus 1, PBMC, HIV-1 subtype F isolate 93BR020, human PBMCs
[18] = CC50, Activated PBMCs (IL-2/PHA 2 days)

Row | Structure (SMILES) | PAEC95 (protein binding-adjusted EC95) (HIV-1 IIIb) [nM] | EC95 (HIV-1 IIIb) [nM] | CC50 at 5 days [2] [nM] | EC50 (HIV-1 clinical isolates; [6]) [nM] | EC50 (HIV-1 clinical isolates; [7]) [nM] | EC50 (HIV-1 clinical isolates; [8]) [nM] | EC50 (HIV-1 clinical isolates; [9]) [nM] | EC50 (HIV-1 clinical isolates; [10]) [nM] | EC50 (HIV-1 clinical isolates; [11]) [nM] | EC50 (HIV-1 clinical isolates; [12]) [nM] | EC50 (HIV-1 clinical isolates; [13]) [nM] | EC50 (HIV-1 clinical isolates; [14]) [nM] | EC50 (HIV-1 clinical isolates; [15]) [nM] | EC50 (HIV-1 clinical isolates; [16]) [nM] | EC50 (HIV-1 clinical isolates; [17]) [nM] | EC50 [3] [nM] | CC50 (in vitro; [18]) [nM] | CC50 (in vitro; CC50, Resting PBMCs) [nM] | other results
1 | O=C(NCc1c(F)cc(F)cc1F)c1cn2c(c(O)c1=O)C(=O)N1[C@H]3CC[C@H](C3)O[C@@H]1C2 [BIC, Bictegravir] | 361 | 8.3 | 10300 | 0.35 ± 0.12 | 0.71 ± 0.26 | 1.5 ± 0.6 | 1 ± 0.5 | 0.89 ± 0.17 | 1.2 ± 0.4 | 0.15 ± 0.01 | 1.2 ± 0.2 | 0.33 ± 0.01 | 0.51 ± 0.17 | 0.25 ± 0.06 | 1.2 ± 0.5 | > 50000 | 5700 | 8400 | reduction of authentic integration products in infected cells [1]: 100 fold; EC50 (HIV-1 clinical isolates; Human immunodeficiency virus 1, PBMC, read-out: mean EC50 against clinical isolates, 14 HIV-1 isolates and one HIV-2 isolate, human PBMCs): 0.81 nM; EC50 (HIV-1 clinical isolates; Human immunodeficiency virus 1, PBMC, read-out: range of EC50s against clinical isolates, 14 HIV-1 isolates and one HIV-2 isolate, human PBMCs): 0.04 to 1.7 nM; IC50 [4]: 241 ± 51 nM; EC50 (HIV-1 clonal variants): 1.55 nM
2 | C[C@@H]1CCO[C@H]2Cn3cc(C(=O)NCc4ccc(F)cc4F)c(=O)c(O)c3C(=O)N12 [DTG, Dolutegravir] | 204 | 7.4 | 5350 | 0.32 ± 0.11 | 0.34 ± 0.09 | 0.66 ± 0.05 | 1.4 ± 0.4 | 0.8 ± 0.48 | 1 ± 0.4 | 0.17 ± 0.03 | 0.75 ± 0.09 | 0.32 ± 0.48 | 0.11 ± 0.01 | 0.25 ± 0.08 | 0.4 ± 0.19 | > 50000 | 23900 | 30600 | IC50 [5]: 1930 nM
